Measurements published in patent US8883799B2, “Tricyclic PI3K inhibitor compounds and methods of use” (Genentech, Inc., priority 2010, dated 2014).

Target: T1, p110 alpha PI3K (Homo sapiens, UniProt P42336)
T1 construct: purchased Upstate Cell Signaling Solutions, Charlottesville, Va
Assay: p110α (alpha) PI3K binding assay (fluorescence polarization; alternatively radiometric)
Conditions: read-out: IC50, Ki (μmole) PI3K, p110 alpha binding assay
Experimental: Binding Assays: Initial polarization experiments were performed on an Analyst HT® 96-384 (Molecular Devices Corp, Sunnyvale, Calif.). […] After an incubation time of 30 minutes at room temperature, the reactions were stopped by the addition of GRP-1 and PIP3-TAMRA probe (Echelon-Inc., Salt Lake City, Utah) 100 nM and 5 nM final concentrations respectively. Read with standard cut-off filters for the rhodamine fluorophore (λex=530 nm; λem=590 nm) in 384-well black low volume Proxiplates® (PerkinElmer, Wellesley, Mass.) Fluorescence polarization values were plotted as a function of the protein concentration, and the EC50 values were obtained by fitting the data to a 4-parameter equation using KaleidaGraph® software (Synergy software, Reading, Pa.). This experiment also establishes the appropriate protein concentration to use in subsequent competition experiments with inhibitors.
After an incubation time of 30 minutes at room temperature, the reactions were stopped by the addition of GRP-1 and PIP3-TAMRA probe (Echelon-Inc., Salt Lake City, Utah) 100 nM and 5 nM final concentrations respectively. Read with standard cut-off filters for the rhodamine fluorophore (λex=530 nm; λem=590 nm) in 384-well black low volume PROXIPLATES® (PerkinElmer, Wellesley, Mass.) Fluorescence polarization values were plotted as a function of the antagonist concentration, and the IC50 values were obtained by fitting the data to a 4-parameter equation in Assay Explorer® software (MDL, San Ramon, Calif.).
The Formula I compound was serially diluted in 100% DMSO. The kinase reaction was incubated for 1 hr at room temperature, and the reaction was terminated by the addition of PBS. IC50 values were subsequently determined using sigmoidal dose-response curve fit (variable slope).

T1 sequence (P42336 whole entry): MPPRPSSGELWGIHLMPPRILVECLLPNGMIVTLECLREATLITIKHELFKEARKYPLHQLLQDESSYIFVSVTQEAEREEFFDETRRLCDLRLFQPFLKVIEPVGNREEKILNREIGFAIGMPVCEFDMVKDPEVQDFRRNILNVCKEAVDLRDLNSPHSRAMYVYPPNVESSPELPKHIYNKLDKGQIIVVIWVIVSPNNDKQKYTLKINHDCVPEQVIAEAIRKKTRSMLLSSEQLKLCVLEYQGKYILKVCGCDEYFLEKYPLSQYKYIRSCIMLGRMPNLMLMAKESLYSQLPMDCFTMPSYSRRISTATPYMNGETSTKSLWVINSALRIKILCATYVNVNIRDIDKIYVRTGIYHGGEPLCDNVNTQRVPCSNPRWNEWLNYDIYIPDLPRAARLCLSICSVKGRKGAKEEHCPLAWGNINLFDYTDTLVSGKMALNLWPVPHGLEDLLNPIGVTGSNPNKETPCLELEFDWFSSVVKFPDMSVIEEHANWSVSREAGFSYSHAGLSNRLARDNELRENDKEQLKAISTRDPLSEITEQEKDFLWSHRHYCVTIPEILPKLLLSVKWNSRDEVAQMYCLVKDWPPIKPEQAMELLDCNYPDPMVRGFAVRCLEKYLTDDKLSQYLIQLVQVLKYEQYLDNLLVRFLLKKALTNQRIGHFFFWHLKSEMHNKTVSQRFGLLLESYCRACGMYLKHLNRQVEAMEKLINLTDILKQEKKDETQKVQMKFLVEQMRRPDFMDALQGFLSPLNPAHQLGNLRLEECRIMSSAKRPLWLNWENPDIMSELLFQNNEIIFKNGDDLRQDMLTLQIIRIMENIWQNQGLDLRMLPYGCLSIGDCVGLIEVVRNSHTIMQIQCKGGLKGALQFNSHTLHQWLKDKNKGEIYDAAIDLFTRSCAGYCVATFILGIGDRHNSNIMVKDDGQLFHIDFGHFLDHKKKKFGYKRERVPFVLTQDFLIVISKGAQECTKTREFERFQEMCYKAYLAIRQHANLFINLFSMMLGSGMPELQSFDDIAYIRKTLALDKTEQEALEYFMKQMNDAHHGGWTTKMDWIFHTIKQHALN
T1 sequence (P27986 whole entry partner): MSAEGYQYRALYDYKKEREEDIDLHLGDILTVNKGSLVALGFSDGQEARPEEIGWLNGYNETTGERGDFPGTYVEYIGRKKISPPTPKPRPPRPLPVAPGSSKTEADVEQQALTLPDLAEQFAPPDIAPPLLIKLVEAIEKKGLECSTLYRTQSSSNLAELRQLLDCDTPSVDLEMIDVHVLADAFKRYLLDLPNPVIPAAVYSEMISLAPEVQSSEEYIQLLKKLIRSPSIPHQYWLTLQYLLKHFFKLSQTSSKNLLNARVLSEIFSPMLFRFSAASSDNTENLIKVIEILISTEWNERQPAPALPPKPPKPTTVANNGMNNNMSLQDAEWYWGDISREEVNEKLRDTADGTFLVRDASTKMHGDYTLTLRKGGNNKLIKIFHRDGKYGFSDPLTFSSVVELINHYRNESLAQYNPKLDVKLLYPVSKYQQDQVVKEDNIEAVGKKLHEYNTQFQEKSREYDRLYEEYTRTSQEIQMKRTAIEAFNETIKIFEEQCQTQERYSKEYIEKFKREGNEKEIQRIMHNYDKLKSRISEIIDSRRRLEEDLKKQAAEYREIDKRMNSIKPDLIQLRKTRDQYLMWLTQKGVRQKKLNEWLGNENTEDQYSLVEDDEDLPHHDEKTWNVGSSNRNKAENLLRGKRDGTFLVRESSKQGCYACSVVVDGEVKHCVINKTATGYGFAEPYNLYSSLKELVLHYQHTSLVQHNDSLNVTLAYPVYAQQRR

IC50 [nM] | Structure (SMILES)
> 695 | CN(C)C(=O)c1ccc(-c2nc(N3CCOCC3)c3nc4n(c3n2)CCOC4(C)C)cc1 [Compound 142, 4-(6,6-dimethyl-4-morpholino-8,9-dihydro-6H-[1,4]oxazino[3,4-e]purin-2-yl)-N,N-dimethylbenzamide]
> 695 | CC1(C)OCCn2c1nc1c(N3CCOCC3)nc(-c3cccc(CC#N)c3)nc12 [Compound 144, 2-(3-(6,6-dimethyl-4-morpholino-8,9-dihydro-6H-[1,4]oxazino[3,4-e]purin-2-yl)phenyl)acetonitrile]
> 695 | CC1(C)OCCn2c1nc1c(N3CCOCC3)nc(-c3ccc4[nH]ncc4c3)nc12 [Compound 129, 2-(1H-indazol-5-yl)-6,6-dimethyl-4-morpholino-8,9-dihydro-6H-[1,4]oxazino[3,4-e]purine]
> 695 | CNC(=O)c1ccc(-c2nc(N3CCOCC3)c3nc4n(c3n2)CCOC4(C)C)cn1 [Compound 153, 5-(6,6-dimethyl-4-morpholino-8,9-dihydro-6H-[1,4]oxazino[3,4-e]purin-2-yl)-N-methylpicolinamide]
> 695 | CC1(C)OCCn2c1nc1c(N3CCOCC3)nc(-c3ccc(O)nc3)nc12 [Compound 137, 5-(6,6-dimethyl-4-morpholino-8,9-dihydro-6H-[1,4]oxazino[3,4-e]purin-2-yl)pyridine-2-ol]
> 695 | CC1(C)OCCn2c1nc1c(N3CCOCC3)nc(-c3ccc(C#N)cc3)nc12 [Compound 151, 4-(6,6-dimethyl-4-morpholino-8,9-dihydro-6H-[1,4]oxazino[3,4-e]purin-2-yl)benzonitrile]
> 695 | CN(C)c1cccc(-c2nc(N3CCOCC3)c3nc4n(c3n2)CCOC4(C)C)c1 [Compound 155, 3-(6,6-dimethyl-4-morpholino-8,9-dihydro-6H-[1,4]oxazino[3,4-e]purin-2-yl)-N,N-dimethylaniline]
> 695 | CC1(C)OCCn2c1nc1c(N3CCOCC3)nc(-c3ccc(N4CCCCC4)cc3)nc12 [Compound 157, 6,6-dimethyl-4-morpholino-2-(4-(piperidin-1-yl)phenyl)-8,9-dihydro-6H-[1,4]oxazino[3,4-e]purine]

The next lines start with the compound.

Structure (SMILES) | IC50 [nM]
CC1(C)OCCn2c1nc1c(N3CCOCC3)nc(-c3ccc(OCc4ccccc4)cc3)nc12 [Compound 154, 2-(4-(benzyloxy)phenyl)-6,6-dimethyl-4-morpholino-8,9-dihydro-6H-[1,4]oxazino[3,4-e]purine] | > 695
CN1CCN(c2ccc(-c3nc(N4CCOCC4)c4nc5n(c4n3)CCOC5(C)C)cc2)CC1 [Compound 156, 6,6-dimethyl-2-(4-(4-methylpiperazin-1-yl)phenyl)-4-morpholino-8,9-dihydro-6H-[1,4]oxazino[3,4-e]purine] | > 695
CN1CCN(c2cc(-c3nc(N4CCOCC4)c4nc5n(c4n3)CCOC5(C)C)ccn2)CC1 [Compound 130, 6,6-dimethyl-2-(2-(4-methylpiperazin-1-yl)yridine-4-yl)-4-morpholino-8,9-dihydro-6H-[1,4]oxazino[3,4-e]purine] | > 695
CC1(C)OCCn2c1nc1c(N3CCOCC3)nc(-c3cnn(Cc4ccccc4)c3)nc12 [Compound 133, 2-(1-benzyl-1H-pyrazol-4-yl)-6,6-dimethyl-4-morpholino-8,9-dihydro-6H-[1,4]oxazino[3,4-e]purine] | > 695
CC1(C)OCCn2c1nc1c(N3CCOCC3)nc(-c3cccc(N4CCOCC4)c3)nc12 [Compound 145, 6,6-dimethyl-4-morpholino-2-(3-morpholinophenyl)-8,9-dihydro-6H-[1,4]oxazino[3,4-e]purine] | > 695
CN1CCN(C(=O)c2ccc(-c3nc(N4CCOCC4)c4nc5n(c4n3)CCOC5(C)C)cc2)CC1 [Compound 161, (4-(6,6-dimethyl-4-morpholino-8,9-dihydro-6H-[1,4]oxazino[3,4-e]purin-2-yl)phenyl)(4-methylpiperazin-1-yl)methanone] | > 695
CCn1cc(-c2nc(N3CCOCC3)c3nc4n(c3n2)CCOC4(C)C)cn1 [Compound 141, 2-(1-ethyl-1H-pyrazol-4-yl)-6,6-dimethyl-4-morpholino-8,9-dihydro-6H-[1,4]oxazino[3,4-e]purine] | > 695
Cn1cc(-c2nc(N3CCOCC3)c3nc4n(c3n2)CCOC4(C)C)cn1 [Compound 127, 6,6-dimethyl-2-(1-methyl-1H-pyrazol-4-yl)-4-morpholino-8,9-dihydro-6H-[1,4]oxazino[3,4-e]purine] | > 695
CC(C)Oc1ncccc1-c1nc(N2CCOCC2)c2nc3n(c2n1)CCOC3(C)C [Compound 134, 2-(2-isopropoxypyridin-3-yl)-6,6-dimethyl-4-morpholino-8,9-dihydro-6H-[1,4]oxazino[3,4-e]purine] | > 695
CC1(C)OCCn2c1nc1c(N3CCOCC3)nc(-c3cccc(C(=O)NC4CC4)c3)nc12 [Compound 162, N-cyclopropyl-3-(6,6-dimethyl-4-morpholino-8,9-dihydro-6H-[1,4]oxazino[3,4-e]purin-2-yl)benzamide] | > 695
CC1(C)OCCn2c1nc1c(N3CCOCC3)nc(-c3cccc(OCc4ccccc4)c3)nc12 [Compound 147, 2-(3-(benzyloxy)phenyl)-6,6-dimethyl-4-morpholino-8,9-dihydro-6H-[1,4]oxazino[3,4-e]purine] | > 695
CC(=O)Nc1ccccc1-c1nc(N2CCOCC2)c2nc3n(c2n1)CCOC3(C)C [Compound 135, N-(2-(6,6-dimethyl-4-morpholino-8,9-dihydro-6H-[1,4]oxazino[3,4-e]purin-2-yl)phenyl)acetamide] | > 695
CC1(C)OCCn2c1nc1c(N3CCOCC3)nc(-c3ccc(N4CCOCC4)nc3)nc12 [Compound 132, 6,6-dimethyl-4-morpholino-2-(6-morpholinopyridin-3-yl)-8,9-dihydro-6H-[1,4]oxazino[3,4-e]purine] | > 695
CN1CCN(c2ccc(-c3nc(N4CCOCC4)c4nc5n(c4n3)CCOC5(C)C)cn2)CC1 [Compound 149, 6,6-dimethyl-2-(6-(4-methylpiperazin-1-yl)yridine-3-yl)-4-morpholino-8,9-dihydro-6H-[1,4]oxazino[3,4-e]purine] | > 695
CN(C(=O)OC(C)(C)C)c1ccc(-c2nc(N3CCOCC3)c3nc4n(c3n2)CCOC4(C)C)cc1 [Compound 143, tert-butyl 4-(6,6-dimethyl-4-morpholino-8,9-dihydro-6H-[1,4]oxazino[3,4-e]purin-2-yl)phenyl(methyl)carbamate] | > 695
CC1(C)OCCn2c1nc1c(N3CCOCC3)nc(-c3cccc(CN4CCOCC4)c3)nc12 [Compound 146, 6,6-dimethyl-4-morpholino-2-(3-(morpholinomethyl)phenyl)-8,9-dihydro-6H-[1,4]oxazino[3,4-e]purine] | > 695
Cc1n[nH]c(C)c1-c1nc(N2CCOCC2)c2nc3n(c2n1)CCOC3(C)C [Compound 136, 2-(3,5-dimethyl-1H-pyrazol-4-yl)-6,6-dimethyl-4-morpholino-8,9-dihydro-6H-[1,4]oxazino[3,4-e]purine] | > 695
